Experimental data as given in patent US10238118B2 (priority 2011, dated 2019).

Test system: Xylella fastidiosa (Xf)
Type: cell-based
Conditions: single metabolite from Cochliobolus sp. extract, identified by NMR and MS

## C/C=C/c1cc2c(c(=O)o1)C(=O)[C@@H](O)[C@H](C)O2 [radicinin]
  anti-Xf inhibitory activity of the isolated metabolite: inhibitory activity
